# From patent US20240108740A1, “THERAPEUTIC COMPOSITIONS INCLUDING SPN10 AND USES THEREOF” (Stealth BioTherapeutics Inc., priority 2022, published 2024)
# Residues, ends and D or L forms follow the SMILES beside them.
# Columns and labels:
# Sprague Dawley rats = test: Example 45: hypermetabolism after burn injury (indirect calorimetry); type: in vivo, rat; conditions: 30% total body surface area burn; IV every 12 hours for three days
# Method: Sprague Dawley rats will be randomized into the following groups; sham-burn (SB), burn with saline treatment (B), burn with peptide conjugate-treatment (BP), burn with aromatic-cationic peptides (BP2), burn with SPN10(s) (BP3), burn with SPN10(s)+aromatic-cationic peptides (BP4). Catheters will be surgically placed into jugular vein and carotid artery. Band BP, BP2, BP3 and BP4 animals will receive 30% total body surface area full thickness burns by immersing the dorsal part into 100° C. water for 12 seconds with immediate fluid resuscitation. […] The EE of the animals will be monitored for 12 hours in a TSE Indirect Calorimetry System (TSE Co., Germany).
# male C57BL mice = test: Example 46: burn-induced liver apoptosis; type: in vivo, mouse
# Method: Six-to-eight week old male C57BL mice will be subjected to 30% total body surface (TBSA) burn injury and subsequently injected daily with saline vehicle; peptide conjugates (5 mg/kg body weight); aromatic-cationic peptides (an equivalent molar dose of aromatic-cationic peptide based on the concentration of the aromatic-cationic peptide administered in the peptide conjugate treatment group); SPN10(s) (an equivalent molar dose of SPN10 based on the concentration of SPN10 administered in the peptide conjugate treatment group); or SPN10(s) in combination with aromatic-cationic peptides (e.g., an equivalent molar dose of SPN10 based on the concentration of SPN10 administered in the peptide conjugate treatment group and an equivalent molar dose of aromatic-cationic peptide based on the concentration of aromatic-cationic peptide administered in the peptide conjugate treatment group). A weight- and time-matched sham-burn group exposed to lukewarm (˜37° C.) will serve as controls. Liver tissues will be collected 1, 3, and 7 days after burn injury treatment and analyzed for apoptosis (TUNEL), activated caspase levels (Western blot), and caspase activity (enzymatic assay).
# cell stress recovery = conditions: Mitchell et al., bioRxiv, cited from earlier work
# Sprague-Dawley rats = test: Example 47: wound contraction after burn injury; type: in vivo, rat; conditions: compared to burn control subjects
# Method: Sprague-Dawley rats (male, 300-350 g) will be pre-treated with (1 mg) peptide conjugates administered i.p. (approx. 3 mg/kg) 1 hour prior to burn (65° C. water, 25 seconds, lower back), followed by the topical application of peptide conjugates to the wound (1 mg), and 1 mg peptide conjugates administered i.p. once every 12 hours for 72 hours. Wounds will be observed for up to 3 weeks post-burn. A similar treatment regimen is followed for the groups treated with aromatic-cationic peptides (an equivalent molar dose of aromatic-cationic peptide based on the concentration of the aromatic-cationic peptide administered in the peptide conjugate treatment group), SPN10(s) (an equivalent molar dose of SPN10 based on the concentration of SPN10 administered in the peptide conjugate treatment group), or SPN10(s) in combination with aromatic-cationic peptides (e.g., an equivalent molar dose of SPN10 based on the concentration of SPN10 administered in the peptide conjugate treatment group and an equivalent molar dose of aromatic-cationic peptide based on the concentration of aromatic-cationic peptide administered in the peptide conjugate treatment group).
# [1] = tested on: New Zealand white rabbits; test: Acute myocardial infarction injury in a rabbit model; type: in vivo; conditions: IV infusion, 30-minute ischemia, 3 hours post-reperfusion
# Method: New Zealand white rabbits will be used in this study. The rabbits will be males and >10 weeks in age. Environmental controls in the animal rooms will be set to maintain temperatures of 61° to 72° F. and relative humidity between 30% and 70%. Room temperature and humidity will be recorded hourly, and monitored daily. There will be approximately 10-15 air exchanges per hour in the animal rooms. Photoperiod will be 12-hr light/12-hr dark (via fluorescent lighting) with exceptions as necessary to accommodate dosing and data collection. Routine daily observations will be performed. Harlan Teklad, Certified Diet (2030C), rabbit diet will be provided approximately 180 grams per day from arrival to the facility. In addition, fresh fruits and vegetables will be given to the rabbit 3 times a week. […]
# In all cases, treatments will be started approximately 30 minutes after the onset of a 30-minute ischemic insult (coronary occlusion) and continued for up to 3 hours following reperfusion. In all cases, cardiovascular function will be monitored both prior to and during ischemia, as well as for up to 180 minutes (3 hours) post-reperfusion. The experiments will be terminated 3 hours post-reperfusion (end of study); irreversible myocardial injury (infarct size by histomorphometery) at this time-point will be evaluated, and will be the primary-end-point of the study.
smiles,measurement,setting,value
"N=C(N)NCCC[C@H](NC(=O)[C@@H](N)Cc1c[nH]c2ccccc12)C(=O)N[C@@H](Cc1c[nH]c2ccccc12)C(=O)N[C@@H](CCCCN)C(N)=O [SPN10, H-L-Trp-L-Arg-L-Trp-L-Lys-NH2] (H-WRWK-NH2)",increase in energy expenditure (EE) after burn,Sprague Dawley rats,attenuate or prevent this effect
same,rate of apoptosis in the liver after burn (TUNEL),"male C57BL mice; 30% TBSA burn, days 1, 3, 7",attenuate or prevent this effect
same,protein oxidation following burn injury,male C57BL mice; compared to burn control subjects,decrease in protein oxidation
same,caspase-3 activation (Western blot),male C57BL mice; days 3 and 7 post-burn,attenuate or suppress caspase-3 activation
same,caspase activity (enzymatic assay),male C57BL mice; post-burn day 7,reduce caspase activity to a level not statistically different from that of sham control group
same,potency in cell stress recovery,"cell stress recovery; among SS-31, SS-20, SPN4, SPN10",greatest potency
same,"performance compared with SS-31 (cell culture assays, structure-activity analysis)",cell stress recovery,consistently outperformed SS-31
same,rate of wound contraction,Sprague-Dawley rats,slower rate of wound contraction
same,infarct size compared to the vehicle control group,[1],decreased infarct size
